Experimental data: the supplement of paper PMC10307832

Tests used:
Experiment in all cases: relative viability (nuclei count vs DMSO), 5 days (fraction); higher = more cells survive
Cabozantinib = compound: COc1cc2nccc(Oc3ccc(NC(=O)C4(C(=O)Nc5ccc(F)cc5)CC4)cc3)c2cc1OC [Cabozantinib]
Procedure, shortened: (§1)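 After an overnight hold at 37 °C, lung cancer cell lines in 1536-well plates were pinned with five library-drug doses (not always all listed), each √10 from the next, on vehicle-anchored plates. The cells stayed 5 days without fresh medium, then a one-step fix, permeabilisation and Hoechst stain preceded 4× imaging and MetaXpress nuclear counts. A plate passed only with control CV under 25% and at least one doubling. Viability is the median, over plates, of treated-well nuclei relative to vehicle-well nuclei.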

Kobe2602 = compound: C1=CC(=CC=C1NC(=S)NNC2=C(C=C(C=C2[N+](=O)[O-])C(F)(F)F)[N+](=O)[O-])F [Kobe2602]
Procedure, shortened: as §1

Zosuquidar = compound: O[C@@H](COc1cccc2ncccc12)CN1CCN([C@@H]2c3ccccc3[C@@H]3[C@H](c4ccccc42)C3(F)F)CC1 [Zosuquidar]
Procedure, shortened: as §1

Kobe2602 + Foretinib = compound: C1=CC(=CC=C1NC(=S)NNC2=C(C=C(C=C2[N+](=O)[O-])C(F)(F)F)[N+](=O)[O-])F [Kobe2602] + COc1cc2c(Oc3ccc(NC(=O)C4(C(=O)Nc5ccc(F)cc5)CC4)cc3F)ccnc2cc1OCCCN1CCOCC1 [Foretinib] (partner 0.25 µM)
Procedure, shortened: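 Lung cancer cell lines in 1536-well plates were dosed by pin tool the day after seeding, either with one drug alone or with a fixed anchor-drug dose plus five library-drug doses (not always all listed) in √10 steps. After 5 days, cells were fixed and their nuclei stained in one step (final 0.05% Triton X-100, 1% formaldehyde, 1 ug/ml Hoechst), then counted on 4× images. Relative viability is the nuclei count in treated wells divided by that in vehicle wells. Values are medians of duplicate plates.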

| Cell Line | relative viability (Cabozantinib; 0.02 µM) | relative viability (Cabozantinib; 0.06325 µM) | relative viability (Cabozantinib; 0.2 µM) | relative viability (Cabozantinib; 0.6325 µM) | relative viability (Cabozantinib; 2 µM) | relative viability (Kobe2602; 0.2 µM) | relative viability (Kobe2602; 0.6325 µM) | relative viability (Kobe2602; 2 µM) | relative viability (Kobe2602; 6.325 µM) | relative viability (Kobe2602; 20 µM) | relative viability (Zosuquidar; 0.01 µM) | relative viability (Zosuquidar; 0.03162 µM) | relative viability (Zosuquidar; 0.1 µM) | relative viability (Zosuquidar; 0.3162 µM) | relative viability (Zosuquidar; 1 µM) | relative viability (Kobe2602 + Foretinib; first compound 0.2 µM) | relative viability (Kobe2602 + Foretinib; first compound 0.6325 µM) | relative viability (Kobe2602 + Foretinib; first compound 2 µM) | relative viability (Kobe2602 + Foretinib; first compound 6.325 µM) | relative viability (Kobe2602 + Foretinib; first compound 20 µM) |
| --- | --- | --- | --- | --- | --- | --- | --- | --- | --- | --- | --- | --- | --- | --- | --- | --- | --- | --- | --- | --- |
| A549 | 0.981 | 1.01 | 0.991 | 0.941 | 0.907 | 0.946 | 0.965 | 0.975 | 0.929 | 0.97 | 0.895 | 0.802 | 0.935 | 1.09 | 0.98 | 0.955 | 0.991 | 0.908 | 0.924 | 0.958 |
| NCI-H2342 | 0.909 | 1.02 | 0.866 | 0.952 | 0.888 | 1.03 | 1.06 | 0.92 | 0.946 | 1.12 | 0.876 | 0.964 | 0.758 | 1.11 | 1 | 1.08 | 1.16 | 0.968 | 0.991 | 1.23 |
| NCI-H1623 | 0.959 | 1.13 | 0.731 | 1 | 0.972 | 1.04 | 1 | 1.03 | 0.9 | 0.933 | 0.98 | 0.898 | 0.879 | 1 | 1.02 | 0.966 | 0.954 | 0.79 | 0.809 | 0.854 |
| LCLC-97TM1 | – | 1.02 | 1.06 | 0.999 | 1.02 | 1.07 | 1.07 | 0.928 | 0.798 | 1 | 0.9 | 1.12 | – | 1.02 | 0.939 | 0.834 | 0.928 | 1.01 | 0.956 | 0.924 |
| NCI-H2087 | 1.09 | 1.16 | 1.03 | 0.922 | 1.02 | 1.02 | 1.08 | 0.995 | 1.08 | 1.13 | 1.06 | 0.971 | 0.907 | 1.19 | 1.07 | 1.09 | 1.18 | 1.07 | 1.11 | 1.18 |
| NCI-H647 | 0.994 | 1.14 | 0.986 | 0.92 | 0.881 | 0.938 | 1.09 | 0.936 | 0.91 | 0.948 | 0.908 | 0.951 | 0.918 | 1.13 | 0.884 | 1.13 | 1.29 | 1.16 | 1.17 | 1.12 |
| Calu-6 | 1.14 | 1.08 | 0.977 | 0.987 | 0.954 | 0.992 | 1.05 | 1.01 | 1.01 | 0.929 | 0.993 | 0.989 | 1.11 | 1.04 | 1.06 | 0.858 | 0.935 | 0.894 | 0.86 | 0.875 |
| LCLC-103H | 0.824 | 1.16 | 1.02 | 1.05 | 0.953 | 1.01 | 1.01 | 0.987 | 0.992 | 0.981 | 0.911 | 0.973 | 0.752 | 1.02 | 1.06 | 0.82 | 0.905 | 0.751 | 0.832 | 0.723 |
| HCC-15 | 0.972 | 1.11 | 1.01 | 0.994 | 1.02 | 1 | 1.03 | 0.976 | 0.998 | 0.991 | 0.959 | 0.937 | 0.956 | 1.04 | 0.972 | 0.979 | 1.09 | 0.974 | 1.09 | 0.974 |
| H3255 | 0.948 | 1.04 | – | 0.994 | 1.07 | 0.959 | 1.03 | 0.909 | 0.91 | 0.915 | 0.959 | 0.952 | 0.8 | 1.07 | 0.931 | 0.946 | 0.834 | 0.784 | 0.882 | 0.944 |
| NCI-H1915 | 0.994 | 1.03 | 1.02 | 0.996 | 0.994 | 0.998 | 1.08 | 0.987 | 0.985 | 1 | 0.986 | 1.04 | 0.926 | 1.04 | 1.01 | 1.11 | 1.09 | 1.08 | 1.02 | 1.06 |
| NCI-H1650 | 0.925 | 1.13 | 0.805 | 1.02 | 0.89 | 0.891 | 1.02 | 0.99 | 0.913 | 0.846 | 0.885 | 0.929 | 0.876 | 1.06 | 0.912 | 0.998 | 1.31 | 0.962 | 1.09 | 1.59 |
| NCI-H661 | 0.986 | 1.03 | 1.01 | 1.02 | 1.06 | 1 | 0.952 | 0.983 | 0.991 | 1.02 | 0.945 | 0.976 | 0.91 | 1.03 | 0.982 | 0.869 | 1.01 | 0.99 | 1.02 | 1.03 |
| NCI-H522 | 0.863 | 0.98 | 0.897 | 0.98 | 1.15 | 1.08 | 1.11 | 0.997 | 0.895 | 0.979 | 1.01 | 0.809 | 0.955 | 1.06 | 0.907 | – | – | – | – | – |
| HCC-44 | 1.01 | 1.05 | 1.04 | 1.06 | 1.01 | 0.982 | 1.02 | 0.974 | 0.958 | 0.942 | 1.01 | 1.03 | 0.987 | 1.05 | 0.978 | – | – | – | – | – |
| NCI-H1648 | 0.868 | 0.991 | 0.629 | 1.07 | 0.802 | 1.22 | 0.902 | 0.701 | 0.824 | 0.763 | 0.969 | 0.947 | 0.676 | 0.673 | 0.852 | – | – | – | – | – |
| NCI-H1792 | – | 1.21 | 0.915 | 0.894 | 0.898 | 0.99 | 1.02 | 0.848 | 0.978 | 1.07 | 0.833 | 0.94 | 0.729 | 0.954 | 0.834 | – | – | – | – | – |
